Measured values published in patent US20230192617A1, “AZABICYCLIC(THIO)AMIDES AS FUNGICIDAL COMPOUNDS” (Bayer CropScience Aktiengesellschaft, priority 2020, published 2023).

Columns and labels:
[1] = system: Botrytis cinerea; experiment: B-11. Botrytis cinerea in vitro cell test; type: cell-based; conditions: 144 h, 20 ppm of active ingredient, 6 days incubation, liquid culture, absorbance, read-out: efficacy (inhibition of fungal growth)
How it was run: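 B. cinerea spores were grown in liquid culture with compound (DMSO ≤1% final). Mycelium growth was measured spectrometrically after 6 days, with inhibition taken as absorbance relative to untreated control wells.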

[2] = system: Colletotrichum lindemuthianum; experiment: In vivo preventive test on Colletotrichum lindemuthianum (leaf spot on bean); conditions: 168 h, 500 ppm of active ingredient, preventive spray on bean, evaluated 7 days after inoculation, read-out: efficacy
How it was run: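 Young bean plants sprayed with compound in DMSO/acetone/Tween 80 diluted in water; solvent-only controls. Inoculated 24 h later with C. lindemuthianum spore suspension, then kept 24 h at 20 °C/100% RH and 6 days at 20 °C/90% RH.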

[3] = system: Alternaria brassicae; experiment: In vivo preventive test on Alternaria brassicae (leaf spot on radish or cabbage); conditions: 500 ppm of active ingredient, preventive spray on radish or cabbage, evaluated 3 to 4 days after inoculation, read-out: efficacy
How it was run: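 Young radish or cabbage plants were sprayed with compound dissolved in DMSO/acetone/Tween 80 and diluted in water; controls received solvent only. Inoculation by spraying A. brassicae spore suspension 24 h later, then 3–4 days at 20 °C and 100% relative humidity.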

| Compound | inhibition at 20 ppm [1] | pest or weed control at 500 ppm [2] | pest or weed control at 500 ppm [3] |
| --- | --- | --- | --- |
| Cc1ccc(C(F)(F)CNC(=O)c2c(Oc3cccc(C(F)(F)F)c3)nnc3c2CCCC3)c(Cl)c1 [I-239] | 90 to 100% | 90 to 100% | 90 to 100% |
| Cc1ccc(C(F)(F)CNC(=O)c2c(Oc3cccc(C(F)F)c3)nnc3c2CCCC3)c(Cl)c1 [I-243] | 90 to 100% | 90 to 100% | 90 to 100% |
| Cc1ccc(C(F)(F)CNC(=O)c2c(Oc3cccc(C(F)(F)F)c3)nnc3cc(C)ccc23)c(Cl)c1 [I-245] | 90 to 100% | 80 to 89% | 90 to 100% |
| Cc1ccc2c(C(=O)NCC(F)(F)c3ccc(C)c(C)c3)c(Oc3cccc(C(F)(F)F)c3)nnc2c1 [I-246] | 90 to 100% | 80 to 89% | 90 to 100% |
